Assay type in all cases: in vivo
Assay [1] concerns Yellow Fever Mosquito (Aedes aegypti, AEDSAE). In words: Bioassay on Yellow Fever Mosquito (YFM), 96-well plate larval assay. Particulars: Yellow Fever Mosquito, 96-well plate larval assay. Summed up: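 Each well was scored for mortality after 3 days at room temperature under a non-evaporative lid. Test molecules came from DMSO masters (4000 ppm stock) diluted with water/acetone 90:10 and dispensed into six replicate plates, which were then infested with roughly 1-day-old larvae in liver-powder water.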

The test system of assay [2] is Cabbage Looper (Trichoplusia ni, TRIPNI). Description: Bioassay on Cabbage Looper (CL), 128-well diet tray assay. Particulars: Trichoplusia ni; Cabbage Looper, 128-well diet tray assay; read-out: CL rating. Summed up: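 Percent mortality, averaged across eight replicate wells, was scored after five to seven days at 25° C. under a 14:10 light-dark cycle. Each well held one to five second instar larvae on artificial diet treated at 50 μg/cm^2 with compound from 90:10 acetone-water, allowed to dry before infestation.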

In assay [3] the test system is Beet Armyworm (Spodoptera exigua, LAPHEG). In words: Bioassay on Beet Armyworm (BAW), 128-well diet tray assay. As to conditions: Beet Armyworm, 128-well diet tray assay, read-out: BAW rating. Summed up: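 Diet tray, 8 wells/compound; 50 μg/cm^2 applied to diet surface (90:10 acetone-water), dried. 1–5 L2 larvae/well; 25° C., 14:10 L:D, 5–7 d. Read-out: % mortality, mean of 8 wells.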

Consider `Cc1cc(F)ccc1NC(=O)c1cc(NC(=O)[C@H]2[C@H](c3ccc(F)c(Cl)c3)C2(Cl)Cl)ccc1Cl` (relative stereo) [PF48, trans-2-Chloro-5-(2,2-dichloro-3-(3-chloro-4-fluorophenyl)cyclopropane-1-carboxamido)-N-(4-fluoro-2-methylphenyl)benzamide], for which the YFM rating result in assay [1] is “A (80-100)”. Also, the pest or weed control at 50 µg/cm2 in assay [2] and in assay [3] was 50 to 100% each time.
In the case of `Cc1cc(F)ccc1N(C)C(=O)c1cc(NC(=O)[C@H]2[C@H](c3cc(Cl)cc(Cl)c3)C2(Cl)Cl)ccc1Cl` (relative stereo) [PF49, trans-2-Chloro-5-(2,2-dichloro-3-(3,5-dichlorophenyl)cyclopropane-1-carboxamido)-N-(4-fluoro-2-methylphenyl)-N-methylbenzamide], the YFM rating entry in assay [1] is “B (More than 0-Less than 80)”. Further, the pest or weed control at 50 µg/cm2 in assay [2] and in assay [3] was 50 to 100% in each case.
For `Cc1cc(F)ccc1N(C)C(=O)c1cc(NC(=O)[C@H]2[C@H](c3ccc(F)c(Cl)c3)C2(Cl)Cl)ccc1Cl` (relative stereo) [PF50, trans-2-Chloro-5-(2,2-dichloro-3-(3-chloro-4-fluorophenyl)cyclopropane-1-carboxamido)-N-(4-fluoro-2-methylphenyl)-N-methylbenzamide], the YFM rating result in assay [1] is “A (80-100)”. The pest or weed control at 50 µg/cm2 in assay [2] and in assay [3] was 50 to 100% each time.
On to `COc1cc(NC(=O)c2cc(NC(=O)[C@H]3[C@H](c4cc(Cl)cc(Cl)c4)C3(Cl)Cl)ccc2Cl)ccc1F` (relative stereo) [PF52, trans-2-Chloro-5-(2,2-dichloro-3-(3,5-dichlorophenyl)cyclopropane-1-carboxamido)-N-(4-fluoro-3-methoxyphenyl)benzamide], for which the YFM rating entry in assay [1] is “A (80-100)”. Besides, the pest or weed control at 50 µg/cm2 in assay [2] and in assay [3] was 50 to 100% throughout.
On to `Cc1cc(NC(=O)c2cc(NC(=O)[C@H]3[C@H](c4cc(Cl)cc(Cl)c4)C3(Cl)Cl)ccc2Cl)cc(C)c1F` (relative stereo) [PF53, trans-2-Chloro-5-(2,2-dichloro-3-(3,5-dichlorophenyl)cyclopropane-1-carboxamido)-N-(4-fluoro-3,5-dimethylphenyl)benzamide], for which the YFM rating result in assay [1] is “A (80-100)”. In addition, the pest or weed control at 50 µg/cm2 in assay [2] and in assay [3] was 50 to 100% in each case.
Take `Cc1c(F)ccc(NC(=O)c2cc(NC(=O)[C@H]3[C@H](c4cc(Cl)cc(Cl)c4)C3(Cl)Cl)ccc2Cl)c1C` (relative stereo) [PF54, trans-2-Chloro-5-(2,2-dichloro-3-(3,5-dichlorophenyl)cyclopropane-1-carboxamido)-N-(4-fluoro-2,3-dimethylphenyl)benzamide]: the YFM rating entry in assay [1] is on record as “A (80-100)”. Further, the pest or weed control at 50 µg/cm2 in assay [2] and in assay [3] was 50 to 100% in each case.
In the case of `O=C(Nc1ccc(-n2ccnc2)cc1)c1cc(NC(=O)[C@H]2[C@H](c3cc(Cl)cc(Cl)c3)C2(Cl)Cl)ccc1Cl` (relative stereo) [PF56, trans-N-(4-(1H-Imidazol-1-yl)phenyl)-2-chloro-5-(2,2-dichloro-3-(3,5-dichlorophenyl)cyclopropane-1-carboxamido)benzamide], in assay [1], the YFM rating entry was “A (80-100)”. The pest or weed control at 50 µg/cm2 in assay [2] and in assay [3] was 50 to 100% in each case.
For `O=C(Nc1ccc(-n2cncn2)cc1)c1cc(NC(=O)[C@H]2[C@H](c3cc(Cl)cc(Cl)c3)C2(Cl)Cl)ccc1Cl` (relative stereo) [PF57, trans-N-(4-(1H-1,2,4-Triazol-1-yl)phenyl)-2-chloro-5-(2,2-dichloro-3-(3,5-dichlorophenyl)cyclopropane-1-carboxamido)benzamide], the YFM rating entry in assay [1] was “A (80-100)”. In addition, the pest or weed control at 50 µg/cm2 in assay [2] and in assay [3] was 50 to 100% throughout.
With `COc1cc(F)ccc1NC(=O)c1cc(NC(=O)[C@H]2[C@H](c3cc(Cl)cc(Cl)c3)C2(Cl)Cl)ccc1Cl` (relative stereo) [PF58, trans-2-Chloro-5-(2,2-dichloro-3-(3,5-dichlorophenyl)cyclopropane-1-carboxamido)-N-(4-fluoro-2-methoxyphenyl)benzamide], in assay [1], the YFM rating entry was “A (80-100)”. Also, the pest or weed control at 50 µg/cm2 in assay [2] and in assay [3] was 50 to 100% each time.
Consider `O=C(Nc1ccc(OCC(F)(F)F)cc1)c1cc(NC(=O)[C@H]2[C@H](c3cc(Cl)cc(Cl)c3)C2(Cl)Cl)ccc1Cl` (relative stereo) [PF62, trans-2-Chloro-5-(2,2-dichloro-3-(3,5-dichlorophenyl)cyclopropane-1-carboxamido)-N-(4-(2,2,2-trifluoroethoxy)phenyl)benzamide], for which the YFM rating entry in assay [1] is given as “A (80-100)”. The pest or weed control at 50 µg/cm2 in assay [2] and in assay [3] was 50 to 100% each time.
On to `O=C(Nc1ccc(F)c(F)c1F)c1cc(NC(=O)[C@H]2[C@H](c3cc(Cl)cc(Cl)c3)C2(Cl)Cl)ccc1Cl` (relative stereo) [PF68, trans-2-Chloro-5-(2,2-dichloro-3-(3,5-dichlorophenyl)cyclopropane-1-carboxamido)-N-(2,3,4-trifluorophenyl)benzamide], for which the YFM rating result in assay [1] is recorded as “A (80-100)”. The pest or weed control at 50 µg/cm2 in assay [2] and in assay [3] was 50 to 100% each time.
As to `N#Cc1ccccc1NC(=O)c1cc(NC(=O)[C@H]2[C@H](c3cc(Cl)cc(Cl)c3)C2(Cl)Cl)ccc1Cl` (relative stereo) [PF72, trans-2-Chloro-N-(2-cyanophenyl)-5-(2,2-dichloro-3-(3,5-dichlorophenyl)cyclopropane-1-carboxamido)benzamide], in assay [1], the YFM rating entry was “A (80-100)”. Further, the pest or weed control at 50 µg/cm2 in assay [2] and in assay [3] was 50 to 100% throughout.
On to `O=C(Nc1ccc([N+](=O)[O-])cc1F)c1cc(NC(=O)[C@H]2[C@H](c3cc(Cl)cc(Cl)c3)C2(Cl)Cl)ccc1Cl` (relative stereo) [PF74, trans-2-Chloro-5-(2,2-dichloro-3-(3,5-dichlorophenyl)cyclopropane-1-carboxamido)-N-(2-fluoro-4-nitrophenyl)benzamide], for which, in assay [1], the YFM rating entry is “A (80-100)”. For the same molecule, the pest or weed control at 50 µg/cm2 in assay [2] and in assay [3] was 50 to 100% in each case.
For `O=C(Nc1cc(Cl)cc(Cl)c1)c1cc(NC(=O)[C@H]2[C@H](c3cc(Cl)cc(Cl)c3)C2(Cl)Cl)ccc1Cl` (relative stereo) [PF76, trans-2-Chloro-5-(2,2-dichloro-3-(3,5-dichlorophenyl)cyclopropane-1-carboxamido)-N-(3,5-dichlorophenyl)benzamide], the YFM rating entry in assay [1] was “A (80-100)”. Moreover, the pest or weed control at 50 µg/cm2 in assay [2] and in assay [3] was 50 to 100% each time.
Turning to `CC(=O)c1cc(F)ccc1NC(=O)c1cc(NC(=O)[C@H]2[C@H](c3cc(Cl)cc(Cl)c3)C2(Cl)Cl)ccc1Cl` (relative stereo) [PF77, trans-N-(2-acetyl-4-fluorophenyl)-2-chloro-5-(2,2-dichloro-3-(3,5-dichlorophenyl)cyclopropane-1-carboxamido)benzamide], the YFM rating result in assay [1] is “A (80-100)”. In addition, the pest or weed control at 50 µg/cm2 in assay [2] and in assay [3] was 50 to 100% in each case.
As for `CC(=O)c1ccc(NC(=O)c2cc(NC(=O)[C@H]3[C@H](c4cc(Cl)cc(Cl)c4)C3(Cl)Cl)ccc2Cl)c(F)c1` (relative stereo) [PF78, trans-N-(4-acetyl-2-fluorophenyl)-2-chloro-5-(2,2-dichloro-3-(3,5-dichlorophenyl)cyclopropane-1-carboxamido)benzamide], the YFM rating result in assay [1] is “A (80-100)”. Moreover, the pest or weed control at 50 µg/cm2 in assay [2] and in assay [3] was 50 to 100% in each case.
As to `O=C(Nc1ccc(-n2cnnc2)cc1)c1cc(NC(=O)[C@H]2[C@H](c3cc(Cl)cc(Cl)c3)C2(Cl)Cl)ccc1Cl` (relative stereo) [PF102, trans-N-(4-(4H-1,2,4-Triazol-4-yl)phenyl)-2-chloro-5-(2,2-dichloro-3-(3,5-dichlorophenyl)cyclopropane-1-carboxamido)benzamide], the YFM rating entry in assay [1] is on record as “A (80-100)”. In addition, the pest or weed control at 50 µg/cm2 in assay [2] and in assay [3] was 50 to 100% throughout.
As to `O=C(Nc1ccc(NC(=O)C2CC2)cc1)c1cc(NC(=O)[C@H]2[C@H](c3cc(Cl)cc(Cl)c3)C2(Cl)Cl)ccc1Cl` (relative stereo) [PF107, trans-2-Chloro-N-(4-(cyclopropane-1-carboxamido)phenyl)-5-(2,2-dichloro-3-(3,5-dichlorophenyl)cyclopropane-1-carboxamido)benzamide], the YFM rating result in assay [1] is “A (80-100)”. Further, the pest or weed control at 50 µg/cm2 in assay [2] and in assay [3] was 50 to 100% throughout.
As to `O=C(Nc1ccc(NC(=O)C2CC2(F)F)cc1)c1cc(NC(=O)[C@H]2[C@H](c3cc(Cl)cc(Cl)c3)C2(Cl)Cl)ccc1Cl` (relative stereo) [PF108, trans-2-chloro-5-(2,2-dichloro-3-(3,5-dichlorophenyl)cyclopropane-1-carboxamido)-N-(4-(2,2-difluorocyclopropane-1-carboxamido)phenyl)benzamide], the YFM rating entry in assay [1] is reported as “A (80-100)”. The pest or weed control at 50 µg/cm2 in assay [2] and in assay [3] was 50 to 100% in each case.

The record behind these values is US10219516B2, “Molecules having pesticidal utility, and intermediates, compositions, and processes, related thereto” (priority 2015, dated 2019).
